Reference: the NIST ThermoML archive (doi:10.1016/j.fluid.2008.02.005)
± gives the expanded uncertainty stated by the source.

Key:
[1] = 101.33 kPa, Liquid
[2] = xn = mol fraction of the nth substance listed; conditions: 101 kPa, Liquid

CCCO [propan-1-ol]
[1]
Conditions | mass density [kg/m3]
288.15 K | 807.898 ± 0.46
298.15 K | 799.666 ± 0.47
308.15 K | 791.765 ± 0.49

CCCCCCCO [heptan-1-ol]
[1]
Conditions | mass density [kg/m3]
288.15 K | 825.943 ± 0.43
298.15 K | 818.789 ± 0.45
308.15 K | 812.385 ± 0.46

CCCCCCOCCOCCO [2-(2-hexyloxyethoxy)ethanol] + CCCCCCCO
mass density [kg/m3], [2]
Conditions | 288.15 K | 298.15 K | 308.15 K
x1 = 0.1109 | 840.489 ± 0.41 | 833.182 ± 0.42 | 825.922 ± 0.43
x1 = 0.1592 | 846.447 ± 0.4 | 839.091 ± 0.41 | 831.645 ± 0.42
x1 = 0.1986 | 851.154 ± 0.39 | 843.756 ± 0.4 | 836.178 ± 0.41
x1 = 0.258 | 857.994 ± 0.38 | 850.491 ± 0.39 | 842.797 ± 0.41
x1 = 0.3094 | 863.644 ± 0.38 | 856.08 ± 0.39 | 848.254 ± 0.4
x1 = 0.3515 | 868.149 ± 0.37 | 860.468 ± 0.38 | 852.588 ± 0.39
x1 = 0.3927 | 872.418 ± 0.36 | 864.636 ± 0.37 | 856.716 ± 0.39
x1 = 0.4463 | 877.834 ± 0.35 | 869.912 ± 0.36 | 861.89 ± 0.38
x1 = 0.5084 | 883.872 ± 0.34 | 875.796 ± 0.36 | 867.692 ± 0.37
x1 = 0.5574 | 888.492 ± 0.34 | 880.349 ± 0.35 | 872.159 ± 0.36
x1 = 0.6167 | 893.921 ± 0.33 | 885.645 ± 0.34 | 877.389 ± 0.35
x1 = 0.6511 | 896.97 ± 0.33 | 888.674 ± 0.34 | 880.331 ± 0.35
x1 = 0.7101 | 902.042 ± 0.32 | 893.703 ± 0.33 | 885.279 ± 0.34
x1 = 0.7491 | 905.269 ± 0.31 | 896.923 ± 0.33 | 888.446 ± 0.34
x1 = 0.8085 | 910.029 ± 0.31 | 901.658 ± 0.32 | 893.122 ± 0.33
x1 = 0.8543 | 913.588 ± 0.3 | 905.198 ± 0.31 | 896.613 ± 0.33
x1 = 0.9087 | 917.663 ± 0.29 | 909.197 ± 0.31 | 900.531 ± 0.32
x1 = 0.9487 | 920.583 ± 0.29 | 912.028 ± 0.3 | 903.307 ± 0.32

CO [methanol]
[1]
Conditions | mass density [kg/m3]
288.15 K | 795.969 ± 0.48
298.15 K | 786.548 ± 0.49
308.15 K | 777.067 ± 0.51

CCCCCCOCCOCCO [2-(2-hexyloxyethoxy)ethanol] + CCCCCO
mass density [kg/m3], [2]
Conditions | 288.15 K | 298.15 K | 308.15 K
x1 = 0.1112 | 837.545 ± 0.41 | 830.059 ± 0.42 | 822.319 ± 0.44
x1 = 0.1587 | 846.35 ± 0.4 | 838.122 ± 0.41 | 830.389 ± 0.42
x1 = 0.2096 | 855.128 ± 0.39 | 846.145 ± 0.4 | 838.566 ± 0.41
x1 = 0.2584 | 862.625 ± 0.38 | 853.171 ± 0.39 | 845.659 ± 0.4
x1 = 0.3012 | 868.44 ± 0.37 | 858.72 ± 0.38 | 851.35 ± 0.39
x1 = 0.3558 | 874.88 ± 0.36 | 865.166 ± 0.37 | 857.77 ± 0.38
x1 = 0.4022 | 879.672 ± 0.35 | 870.098 ± 0.36 | 862.642 ± 0.38
x1 = 0.4506 | 884.17 ± 0.34 | 874.849 ± 0.36 | 867.245 ± 0.37
x1 = 0.5069 | 889.049 ± 0.34 | 880.057 ± 0.35 | 872.125 ± 0.36
x1 = 0.541 | 891.897 ± 0.33 | 883.079 ± 0.35 | 874.951 ± 0.36
x1 = 0.5971 | 896.445 ± 0.33 | 887.853 ± 0.34 | 879.382 ± 0.35
x1 = 0.6456 | 900.337 ± 0.32 | 891.848 ± 0.33 | 883.098 ± 0.35
x1 = 0.6998 | 904.59 ± 0.31 | 896.131 ± 0.33 | 887.198 ± 0.34
x1 = 0.747 | 908.177 ± 0.31 | 899.702 ± 0.32 | 890.721 ± 0.34
x1 = 0.8052 | 912.354 ± 0.3 | 903.888 ± 0.32 | 894.96 ± 0.33
x1 = 0.8501 | 915.348 ± 0.3 | 906.892 ± 0.31 | 898.056 ± 0.32
x1 = 0.9008 | 918.511 ± 0.29 | 910.007 ± 0.31 | 901.375 ± 0.32
x1 = 0.9459 | 921.161 ± 0.29 | 912.609 ± 0.3 | 903.991 ± 0.32
